Test results published in US10765642B2, “Composition for preventing or treating muscle weakness-related diseases comprising sobrerol” (KOREA RESEARCH INSTITUTE OF BIOSCIENCE AND BIOTECHNOLOGY, priority 2015, dated 2020).

System: female C57BL/6 mice at the age of 21 months
Experiment: grip strength test in aged mice
Type: in vivo
Conditions: oral for 5 weeks, sobrerol 17.6 or 35.3 mg/kg, clenbuterol 2 mg/kg
Method: The grip strength was measured using a grip strength measuring device for mouse (BIOSEB) (FIG. 6). Specifically, the front limbs of the mice of the Example 3-1 were placed on a wire net attached to an instrument panel capable of monitoring the strength, and the strength to hold the wire net was measured while the tail was gripped and pulled downward. The test was repeated three times in succession.
Experiments were conducted to confirm whether sobrerol increases muscle strength in aged mice. Female C57BL/6 mice at the age of 21 months were adapted to the environment for 2 weeks and then orally administered with drugs for 5 weeks. Specifically, the negative control group was administered with water, the positive control group was administered with clenbuterol at a concentration of 2 mg/kg (mouse), and the sobrerol administration experimental group was orally administered with sobrerol at a concentration of 17.6 or 35.3 mg/kg (mouse). Then, locomotion tests (grip strength, treadmill) were conducted again to verify the effect.
The grip strength test is the same as the Example 3-2.

## CC(C)(C)NCC(O)c1cc(Cl)c(N)c(Cl)c1 (stereo not shown) [clenbuterol]
  fatigue (grip strength weakening) on repeated grip strength measurement: did not show the increase in fatigue
